Data taken from patent US3949090A, “Methods and compositions for improving feed efficiency in ruminants using dithiooxamide” (SmithKline Corporation, priority 1974, dated 1976).

Test system: volatile fatty acid production (strained rumen fluid)
Test: In vitro volatile fatty acid production
Format: cell-based
Procedure: The in vitro fermentation system contained 75 ml. strained rumen fluid, 200 mg, alfalfa hay, 800 mg. of a crude protein grain mixture, 0.8 to 1.6 mM of each of 10 essential amino acids (threonine, valine, methionine, isoleucine, leucine, phelylalanine, tryptophan, lysine and arginine), and 0 to 50 ppm dithiooxamide. Flasks were incubated for 4 hours with effects upon amino acid deamination assessed as described for the previous system. Using standard chromatographic techniques, effects upon methanogenesis and upon the pattern of volatile fatty acid production were determined.
^1 In vitro fermentation system contained 75 ml. strained rumen fluid
200 mg. alfalfa hay, 800 mg. grain mixture (16% crude protein) and 1.6 mM
of each of ten essential amino acids. Flasks were incubated for four
200 mg. alfalfa hay, 800 mg. grain mixture (16% crude protein) and 0.8 mM

## NC(=S)C(N)=S [Dithiooxamide, dithiooxamide]
Table II
  pattern of volatile fatty acids (in words): increased molar percentages of propionate and butyrate at the expense of acetate
  volatile fatty acid carbon (in words): slight decrease in volatile fatty acid carbon
Table II, 5 ppm dithiooxamide, 4 h, control 9
  Volatile Fatty Acids (molar distribution, %): Propionate: 10%
Table II, 5 ppm dithiooxamide, 4 h, control 22
  Volatile Fatty Acids (molar distribution, %): Butyrate: 24%
Table II, 5 ppm dithiooxamide, 4 h, control 69
  Volatile Fatty Acids (molar distribution, %): Acetate: 66%
Table II, 5 ppm dithiooxamide, 4 h, control 128
  Volatile Fatty Acid Carbon: 127 μ moles/ml.
Table II, 10 ppm dithiooxamide, 4 h, control 9
  Volatile Fatty Acids (molar distribution, %): Propionate: 15%
Table II, 10 ppm dithiooxamide, 4 h, control 22
  Volatile Fatty Acids (molar distribution, %): Butyrate: 36%
Table II, 10 ppm dithiooxamide, 4 h, control 69
  Volatile Fatty Acids (molar distribution, %): Acetate: 49%
Table II, 10 ppm dithiooxamide, 4 h, control 128
  Volatile Fatty Acid Carbon: 108 μ moles/ml.
Table II, 25 ppm dithiooxamide, 4 h, control 9
  Volatile Fatty Acids (molar distribution, %): Propionate: 15%
Table II, 25 ppm dithiooxamide, 4 h, control 22
  Volatile Fatty Acids (molar distribution, %): Butyrate: 36%
Table II, 25 ppm dithiooxamide, 4 h, control 69
  Volatile Fatty Acids (molar distribution, %): Acetate: 49%
Table II, 25 ppm dithiooxamide, 4 h, control 128
  Volatile Fatty Acid Carbon: 108 μ moles/ml.
Table II, 50 ppm dithiooxamide, 4 h, control 9
  Volatile Fatty Acids (molar distribution, %): Propionate: 15%
Table II, 50 ppm dithiooxamide, 4 h, control 22
  Volatile Fatty Acids (molar distribution, %): Butyrate: 38%
Table II, 50 ppm dithiooxamide, 4 h, control 69
  Volatile Fatty Acids (molar distribution, %): Acetate: 47%
Table II, 50 ppm dithiooxamide, 4 h, control 128
  Volatile Fatty Acid Carbon: 102 μ moles/ml.
Table III
  patterns of volatile fatty acid production (in words): Alterations in patterns of volatile fatty acid production were again observed
  total volatile fatty acid carbon production (in words): no effects on total volatile fatty acid carbon production
Table III, dithiooxamide 25 ppm + cobalt sulfate .013 ppm, control 15
  Volatile Fatty Acids (molar distribution, %): Propionate: 20%
Table III, dithiooxamide 25 ppm + cobalt sulfate .013 ppm, control 21
  Volatile Fatty Acids (molar distribution, %): Butyrate: 39%
Table III, dithiooxamide 25 ppm + cobalt sulfate .013 ppm, control 64
  Volatile Fatty Acids (molar distribution, %): Acetate: 41%
Table III, dithiooxamide 25 ppm + cobalt sulfate .013 ppm, control 125
  Volatile Fatty Acid Carbon: 127 μ moles/ml.
Table III, dithiooxamide 25 ppm + cobalt sulfate .066 ppm, control 15
  Volatile Fatty Acids (molar distribution, %): Propionate: 20%
Table III, dithiooxamide 25 ppm + cobalt sulfate .066 ppm, control 21
  Volatile Fatty Acids (molar distribution, %): Butyrate: 37%
Table III, dithiooxamide 25 ppm + cobalt sulfate .066 ppm, control 64
  Volatile Fatty Acids (molar distribution, %): Acetate: 43%
Table III, dithiooxamide 25 ppm + cobalt sulfate .066 ppm, control 125
  Volatile Fatty Acid Carbon: 133 μ moles/ml.
Table III, dithiooxamide 25 ppm + copper sulfate .067 ppm, control 15
  Volatile Fatty Acids (molar distribution, %): Propionate: 21%
Table III, dithiooxamide 25 ppm + copper sulfate .067 ppm, control 21
  Volatile Fatty Acids (molar distribution, %): Butyrate: 41%
Table III, dithiooxamide 25 ppm + copper sulfate .067 ppm, control 64
  Volatile Fatty Acids (molar distribution, %): Acetate: 38%
Table III, dithiooxamide 25 ppm + copper sulfate .067 ppm, control 125
  Volatile Fatty Acid Carbon: 114 μ moles/ml.
Table III, dithiooxamide 25 ppm + copper sulfate .333 ppm, control 15
  Volatile Fatty Acids (molar distribution, %): Propionate: 21%
Table III, dithiooxamide 25 ppm + copper sulfate .333 ppm, control 21
  Volatile Fatty Acids (molar distribution, %): Butyrate: 38%
Table III, dithiooxamide 25 ppm + copper sulfate .333 ppm, control 64
  Volatile Fatty Acids (molar distribution, %): Acetate: 41%
Table III, dithiooxamide 25 ppm + copper sulfate .333 ppm, control 125
  Volatile Fatty Acid Carbon: 132 μ moles/ml.
Table III, dithiooxamide 25 ppm, no added cobalt or copper, control 15
  Volatile Fatty Acids (molar distribution, %): Propionate: 21%
Table III, dithiooxamide 25 ppm, no added cobalt or copper, control 21
  Volatile Fatty Acids (molar distribution, %): Butyrate: 40%
Table III, dithiooxamide 25 ppm, no added cobalt or copper, control 64
  Volatile Fatty Acids (molar distribution, %): Acetate: 39%
Table III, dithiooxamide 25 ppm, no added cobalt or copper, control 125
  Volatile Fatty Acid Carbon: 119 μ moles/ml.
